Laboratory results as given in US20170334899A1, “AMINO-SUBSTITUTED ISOTHIAZOLES” (Bayer Pharma Aktiengesellschaft, priority 2014, published 2017).

What follows are compounds tested on HeLa (assay: Proliferation assay (crystal violet), HeLa). Details: Homo sapiens, HeLa, 96 h, HeLa cells; 4 days incubation; crystal violet staining; read-out: IC50 inhibition of proliferation, HeLa.
Format: cell-based
Procedure, shortened: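 Seed 1000–5000 cells/well, 10% FCS; 24 h later replace medium and add compound (0.001–10 μM, 0.5% DMSO); incubate 4 d; glutaraldehyde fix, 0.1% crystal violet pH 3.0, elute with 10% acetic acid; A595; 4-parameter IC50.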

Point of comparison: `Cc1nsc(Nc2cnc3ccccc3n2)c1C(=O)Nc1ccc(NCCC(=O)OC(C)(C)C)nc1` [Example 236, tert-butyl N-[5-({[3-methyl-5-(quinoxalin-2-ylamino)-1,2-thiazol-4-yl]carbonyl}amino)pyridin-2-yl]-beta-alaninate], IC50 4.1 µM. Against it:
- Cc1nsc(Nc2cncc(C(F)(F)F)n2)c1C(=O)Nc1ccc(OCCNC(=O)OC(C)(C)C)c(F)c1 [Example 216, tert-butyl [2-(2-fluoro-4-{[(3-methyl-5-{[6-(trifluoromethyl)pyrazin-2-yl]amino}-1,2-thiazol-4-yl)carbonyl]amino}phenoxy)ethyl]carbamate] — 7.9-fold lower, 0.52 µM
- Cc1nsc(Nc2cnc3ccccc3n2)c1C(=O)Nc1ccc(Oc2cccnc2)nc1 [Example 231, 3-methyl-N-[6-(pyridin-3-yloxy)pyridin-3-yl]-5-(quinoxalin-2-ylamino)-1,2-thiazole-4-carboxamide] — 2.3-fold lower, 1.8 µM
- Cc1nsc(Nc2cc(C#N)ccn2)c1C(=O)Nc1ccc(Oc2cccc(C(F)(F)F)c2)nc1 [Example 230, 5-[(4-cyanopyridin-2-yl)amino]-3-methyl-N-{6-[3-(trifluoromethyl)phenoxy]pyridin-3-yl}-1,2-thiazole-4-carboxamide] — 7.1-fold lower, 0.58 µM
- CNC(=O)c1ccc(NC(=O)c2c(C)nsc2Nc2cnc3ccccc3n2)cc1F [Example 207, N-[3-fluoro-4-(methylcarbamoyl)phenyl]-3-methyl-5-(quinoxalin-2-ylamino)-1,2-thiazole-4-carboxamide] — higher, > 10 µM
- Cc1nsc(Nc2cnc3ccccc3n2)c1C(=O)Nc1ccc(Oc2ccc(SC(F)(F)F)cc2)nc1 [Example 233, 3-methyl-5-(quinoxalin-2-ylamino)-N-(6-{4-[(trifluoromethyl)sulfanyl]phenoxy}pyridin-3-yl)-1,2-thiazole-4-carboxamide] — higher, > 10 µM
- Cc1nsc(Nc2ccc(C#N)cn2)c1C(=O)Nc1ccc(F)c(C(N)=O)c1 [Example 203, N-(3-carbamoyl-4-fluorophenyl)-5-[(5-cyanopyridin-2-yl)amino]-3-methyl-1,2-thiazole-4-carboxamide] — higher, > 10 µM
- Cc1nsc(Nc2cncc(C(F)(F)F)n2)c1C(=O)Nc1ccc(OC2CCNCC2)nc1 [Example 13, 3-Methyl-N-[6-(piperidin-4-yloxy)pyridin-3-yl]-5-{[6-(trifluoromethyl)pyrazin-2-yl]-amino}-1,2-thiazole-4-carboxamide] — 2.4-fold higher, 10 µM
- Cc1nsc(Nc2cncc(C(F)(F)F)n2)c1C(=O)Nc1ccc(C(=O)OC(C)(C)C)cc1 [Example 193, tert-butyl tert-butyl 4-{[(3-methyl-5-{[6-(trifluoromethyl)pyrazin-2-yl]amino}-1,2-thiazol-4-yl)carbonyl]amino}benzoate] — 1.5-fold lower, 2.7 µM
- Cc1nsc(Nc2ccc(C#N)cn2)c1C(=O)Nc1cccc(N)c1 [Example 180, N-(3-aminophenyl)-5-[(5-cyanopyridin-2-yl)amino]-3-methyl-1,2-thiazole-4-carboxamide] — higher, > 10 µM
- Cc1nsc(Nc2cc(C#N)ccn2)c1C(=O)Nc1cccc(C(=O)NC2CC2)c1 [Example 175, 5-[(4-cyanopyridin-2-yl)amino]-N-[3-(cyclopropylcarbamoyl)phenyl]-3-methyl-1,2-thiazole-4-carboxamide] — higher, > 10 µM
- COc1ccc(NC(=O)c2c(C)nsc2Nc2cnc3ccccc3n2)c(CC#N)n1 [Example 235, N-[2-(cyanomethyl)-6-methoxypyridin-3-yl]-3-methyl-5-(quinoxalin-2-ylamino)-1,2-thiazole-4-carboxamide] — 2-fold lower, 2.1 µM
- Cc1nsc(Nc2cnc3ccccc3n2)c1C(=O)Nc1cccc(NC(=O)OC(C)(C)C)c1 [Example 178, tert-butyl [3-({[3-methyl-5-(quinoxalin-2-ylamino)-1,2-thiazol-4-yl]carbonyl}amino)-phenyl]carbamate] — within 1.5-fold, 3.3 µM
- Cc1nsc(Nc2cnc3ccccc3n2)c1C(=O)Nc1ccc(C(N)=O)c(F)c1 [Example 201, N-(4-carbamoyl-3-fluorophenyl)-3-methyl-5-(quinoxalin-2-ylamino)-1,2-thiazole-4-carboxamide] — higher, > 10 µM
- Cc1nsc(Nc2cnc3ccccc3n2)c1C(=O)Nc1ccccc1S(C)(=O)=O [Example 188, 3-methyl-N-[2-(methylsulfonyl)phenyl]-5-(quinoxalin-2-ylamino)-1,2-thiazole-4-carboxamide] — higher, > 10 µM
- Cc1nsc(Nc2ccc(C#N)cn2)c1C(=O)Nc1cccc(C(=O)OC(C)(C)C)c1 [Example 240, tert-butyl 3-[({5-[(5-cyanopyridin-2-yl)amino]-3-methyl-1,2-thiazol-4-yl}carbonyl)amino]benzoate] — 5.5-fold lower, 0.75 µM
- Cc1nsc(Nc2cncc(C(F)(F)F)n2)c1C(=O)Nc1ccc(C(=O)NCCN2CCCC(F)(F)C2)cc1 [Example 214, N-(4-{[2-(3,3-difluoropiperidin-1-yl)ethyl]carbamoyl}phenyl)-3-methyl-5-{[6-(trifluoromethyl)pyrazin-2-yl]amino}-1,2-thiazole-4-carboxamide] — within 1.5-fold, 4.6 µM
- Cc1nsc(Nc2cncc(C(F)(F)F)n2)c1C(=O)Nc1ccc(OC2CCN(CC(F)(F)F)CC2)nc1 [Example 16, 3-Methyl-N-(6-{[1-(2,2,2-trifluoroethyl)piperidin-4-yl]oxy}pyridin-3-yl)-5-{[6-(trifluoromethyl)pyrazin-2-yl]amino}-1,2-thiazole-4-carboxamide] — 5.9-fold lower, 0.69 µM
- Cc1nsc(Nc2cnc(C(F)(F)F)cn2)c1C(=O)Nc1ccc(OC2CCN(C)CC2)nc1 [Example 220, 3-methyl-N-{6-[(1-methylpiperidin-4-yl)oxy]pyridin-3-yl}-5-{[5-(trifluoromethyl)pyrazin-2-yl]amino}-1,2-thiazole-4-carboxamide] — 1.5-fold higher, 6.2 µM
- Cc1nsc(Nc2cncc(C(F)(F)F)n2)c1C(=O)Nc1ccc(F)c(C(N)=O)c1 [Example 204, N-(3-carbamoyl-4-fluorophenyl)-3-methyl-5-{[6-(trifluoromethyl)pyrazin-2-yl]amino}-1,2-thiazole-4-carboxamide] — higher, > 10 µM
- Cc1nsc(Nc2cnc3ccccc3n2)c1C(=O)Nc1ccc(NCC2CCN(C(=O)OC(C)(C)C)CC2)nc1 [Example 238, tert-butyl 4-({[5-({[3-methyl-5-(quinoxalin-2-ylamino)-1,2-thiazol-4-yl]carbonyl}amino)pyridin-2-yl]amino}methyl)piperidine-1-carboxylate] — 2-fold higher, 8.1 µM
- Cc1nsc(Nc2cncc(C(F)(F)F)n2)c1C(=O)Nc1ccc(OC2CCN(C)CC2)nc1 [Example 219, 3-methyl-N-{6-[(1-methylpiperidin-4-yl)oxy]pyridin-3-yl}-5-{[6-(trifluoromethyl)pyrazin-2-yl]amino}-1,2-thiazole-4-carboxamide] — higher, > 10 µM
- Cc1nsc(Nc2cnc(C(F)(F)F)cn2)c1C(=O)Nc1ccc(OCCNC(=O)OC(C)(C)C)nc1 [Example 192, tert-butyl {2-[(5-{[(3-methyl-5-{[5-(trifluoromethyl)pyrazin-2-yl]amino}-1,2-thiazol-4-yl)carbonyl]amino}pyridin-2-yl)oxy]ethyl}carbamate] — 3.4-fold lower, 1.2 µM
- Cc1nsc(Nc2cnc(C(F)(F)F)cn2)c1C(=O)Nc1ccc(F)c(OC2CCN(C(=O)OC(C)(C)C)CC2)c1 [Example 229, tert-butyl 4-(2-fluoro-5-{[(3-methyl-5-{[5-(trifluoromethyl)pyrazin-2-yl]amino}-1,2-thiazol-4-yl)carbonyl]amino}phenoxy)piperidine-1-carboxylate] — 22-fold lower, 0.19 µM
- Cc1nsc(Nc2cncc(C(F)(F)F)n2)c1C(=O)Nc1ccc(OC2CCN(CCF)CC2)nc1 [Example 14, N-(6-{[1-(2-Fluoroethyl)piperidin-4-yl]oxy}pyridin-3-yl)-3-methyl-5-{[6-(trifluoro-methyl)pyrazin-2-yl]amino}-1,2-thiazole-4-carboxamide] — 2.7-fold lower, 1.5 µM
- Cc1nsc(Nc2cnc(C(F)(F)F)cn2)c1C(=O)Nc1ccc(OCC2CCN(C(=O)OC(C)(C)C)CC2)nc1 [Example 227, tert-butyl 4-{[(5-{[(3-methyl-5-{[5-(trifluoromethyl)pyrazin-2-yl]amino}-1,2-thiazol-4-yl)carbonyl]amino}pyridin-2-yl)oxy]methyl}piperidine-1-carboxylate] — 2-fold lower, 2 µM
- Cc1nsc(Nc2cnc(C(F)(F)F)cn2)c1C(=O)Nc1cccc(S(C)(=O)=O)c1 [Example 195, 3-methyl-N-[3-(methylsulfonyl)phenyl]-5-{[5-(trifluoromethyl)pyrazin-2-yl]amino}-1,2-thiazole-4-carboxamide] — within 1.5-fold, 3.1 µM
- Cc1nsc(Nc2cnc(C(F)(F)F)cn2)c1C(=O)Nc1ccc(OCCN)nc1 [Example 197, N-[6-(2-aminoethoxy)pyridin-3-yl]-3-methyl-5-{[5-(trifluoromethyl)pyrazin-2-yl]amino}-1,2-thiazole-4-carboxamide] — 1.8-fold higher, 7.5 µM
- Cc1nsc(Nc2cnc3ccccc3n2)c1C(=O)Nc1ccc(OCCC(=O)OC(C)(C)C)nc1 [Example 198, tert-butyl 3-{[5-({[3-methyl-5-(quinoxalin-2-ylamino)-1,2-thiazol-4-yl]carbonyl}amino)pyridin-2-yl]oxy}propanoate] — 1.6-fold higher, 6.7 µM
- Cc1nsc(Nc2cncc(C(F)(F)F)n2)c1C(=O)Nc1ccc(OCCCNC(=O)OC(C)(C)C)nc1 [Example 190, tert-butyl {3-[(5-{[(3-methyl-5-{[6-(trifluoromethyl)pyrazin-2-yl]amino}-1,2-thiazoL-4-yl)carbonyl]amino}pyridin-2-yl)oxy]propyl}carbamate] — 9.8-fold lower, 0.42 µM
- CNS(=O)(=O)c1ccc(NC(=O)c2c(C)nsc2Nc2cnc(C(F)(F)F)cn2)cc1 [Example 212, 3-methyl-N-[4-(methylsulfamoyl)phenyl]-5-{[5-(trifluoromethyl)pyrazin-2-yl]amino}-1,2-thiazole-4-carboxamide] — higher, > 10 µM
- Cc1nsc(Nc2cncc(C(F)(F)F)n2)c1C(=O)Nc1ccc(OC2CCN(CCF)CC2)c(F)c1 [Example 223, N-(3-fluoro-4-{[1-(2-fluoroethyl)piperidin-4-yl]oxy}phenyl)-3-methyl-5-{[6-(trifluoromethyl)pyrazin-2-yl]amino}-1,2-thiazole-4-carboxamide] — 5.4-fold lower, 0.76 µM
